pIC50: −log10 of the molar value.
System: MDA-MB-231 multicell spheroids, viability
Test: Anticancer human tumor MDA-MB-231 cell line growth inhibition [PI3K];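 note: spheroids exposed to agents for seven days before reading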;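 for viability, T/C: percent of vehicle control luminescence with DMSO treated spheroids as 100%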
Settings: for pIC50: curve of first compound; for viability, T/C: stronger effect = lower value
In short: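 Tumor cells were combined with HUVEC and MSCs into spheroids, then dosed with PI3K-inhibitor combinations over half-log ranges capped near clinical Cmax or 10 microM.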

[1] = second compound 0.0316 µM, first compound 0.0316 µM
[2] = second compound 0.0316 µM, first compound 0.1 µM
[3] = second compound 0.0316 µM, first compound 0.316 µM
[4] = second compound 0.0316 µM, first compound 1 µM
[5] = second compound 0.0316 µM, first compound 3.16 µM
[6] = second compound 0.0316 µM, first compound 10 µM
[7] = second compound 0.1 µM, first compound 0.0316 µM
[8] = second compound 0.1 µM, first compound 0.1 µM
[9] = second compound 0.1 µM, first compound 0.316 µM
[10] = second compound 0.1 µM, first compound 1 µM
[11] = second compound 0.1 µM, first compound 3.16 µM
[12] = second compound 0.1 µM, first compound 10 µM
[13] = second compound 0.316 µM, first compound 0.0316 µM
[14] = second compound 0.316 µM, first compound 0.1 µM
[15] = second compound 0.316 µM, first compound 0.316 µM
[16] = second compound 0.316 µM, first compound 1 µM
[17] = second compound 0.316 µM, first compound 3.16 µM
[18] = second compound 0.316 µM, first compound 10 µM
[19] = second compound 1 µM, first compound 0.0316 µM
[20] = second compound 1 µM, first compound 0.1 µM
[21] = second compound 1 µM, first compound 0.316 µM
[22] = second compound 1 µM, first compound 1 µM
[23] = second compound 1 µM, first compound 3.16 µM
[24] = second compound 1 µM, first compound 10 µM
[25] = second compound 3.16 µM, first compound 0.0316 µM
[26] = second compound 3.16 µM, first compound 0.1 µM
[27] = second compound 3.16 µM, first compound 0.316 µM
[28] = second compound 3.16 µM, first compound 1 µM
[29] = second compound 3.16 µM, first compound 3.16 µM
[30] = second compound 3.16 µM, first compound 10 µM
[31] = second compound 10 µM, first compound 0.0316 µM
[32] = second compound 10 µM, first compound 0.1 µM
[33] = second compound 10 µM, first compound 0.316 µM
[34] = second compound 10 µM, first compound 1 µM
[35] = second compound 10 µM, first compound 3.16 µM
[36] = second compound 10 µM, first compound 10 µM

`CC1(C)CCC(CN2CCN(c3ccc(C(=O)NS(=O)(=O)c4ccc(NCC5CCOCC5)c([N+](=O)[O-])c4)c(Oc4cnc5[nH]ccc5c4)c3)CC2)=C(c2ccc(Cl)cc2)C1` + CC(Nc1ncnc2nc[nH]c12)c1cc2cccc(Cl)c2c(=O)n1-c1ccccc1 gave a pIC50 (second compound 0.0316 µM) of 5.11, a pIC50 (second compound 0.1 µM) of 5.16 and a pIC50 (second compound 0.316 µM) of 5.10. For the same compound, the pIC50 (second compound 1 µM) was 5.21, the pIC50 (second compound 3.16 µM) was 5.28 and the pIC50 (second compound 10 µM) was 5.48. It also gave a viability, T/C [1] of 104%, a viability, T/C [2] of 96.9% and a viability, T/C [3] of 110%. It also gave a viability, T/C [4] of 102%, a viability, T/C [5] of 112% and a viability, T/C [6] of 33.9%. The viability, T/C [7] was 92.5%, the viability, T/C [8] was 92.1% and the viability, T/C [9] was 100%. It also gave a viability, T/C [10] of 107%, a viability, T/C [11] of 103% and a viability, T/C [12] of 26.6%. For the same compound, the viability, T/C [13] was 90.5%, the viability, T/C [14] was 99% and the viability, T/C [15] was 105%. For the same compound, the viability, T/C [16] was 98.2%, the viability, T/C [17] was 108% and the viability, T/C [18] was 37.1%. The viability, T/C [19] was 85.9%, the viability, T/C [20] was 86.6% and the viability, T/C [21] was 75.6%. The viability, T/C [22] was 92.4%, the viability, T/C [23] was 91.8% and the viability, T/C [24] was 23.7%. It also gave a viability, T/C [25] of 70%, a viability, T/C [26] of 64.7% and a viability, T/C [27] of 65.3%. The viability, T/C [28] was 66.6%, the viability, T/C [29] was 72.2% and the viability, T/C [30] was 27.7%. The viability, T/C [31] was 50.6%, the viability, T/C [32] was 50.4% and the viability, T/C [33] was 49.6%. The viability, T/C [34] was 50.5%, the viability, T/C [35] was 53.7% and the viability, T/C [36] was 28.4%.

With `C[C@@H](NC(=O)c1ncnc(N)c1Cl)c1ncc(C(=O)Nc2cc(C(F)(F)F)c(Cl)cn2)s1` + CC(Nc1ncnc2nc[nH]c12)c1cc2cccc(Cl)c2c(=O)n1-c1ccccc1 the pIC50 (second compound 0.0316 µM) was less than 5.00, the pIC50 (second compound 0.1 µM) was less than 5.00 and the pIC50 (second compound 0.316 µM) was less than 5.00. For the same compound, the pIC50 (second compound 1 µM) was 5.09, the pIC50 (second compound 3.16 µM) was 5.86 and the pIC50 (second compound 10 µM) was 6.48. The viability, T/C [1] was 142%, the viability, T/C [2] was 120% and the viability, T/C [3] was 110%. It also gave a viability, T/C [4] of 85.6%, a viability, T/C [5] of 75.6% and a viability, T/C [6] of 62.6%. The viability, T/C [7] was 140%, the viability, T/C [8] was 119% and the viability, T/C [9] was 106%. The viability, T/C [10] was 89.9%, the viability, T/C [11] was 72.7% and the viability, T/C [12] was 62.4%. For the same compound, the viability, T/C [13] was 125%, the viability, T/C [14] was 124% and the viability, T/C [15] was 106%. It also gave a viability, T/C [16] of 80.5%, a viability, T/C [17] of 68% and a viability, T/C [18] of 55.9%. The viability, T/C [19] was 114%, the viability, T/C [20] was 101% and the viability, T/C [21] was 79.1%. For the same compound, the viability, T/C [22] was 73.8%, the viability, T/C [23] was 60.1% and the viability, T/C [24] was 46.8%. It also gave a viability, T/C [25] of 95.5%, a viability, T/C [26] of 79.5% and a viability, T/C [27] of 60.6%. It also gave a viability, T/C [28] of 51.7%, a viability, T/C [29] of 47.7% and a viability, T/C [30] of 37.3%. It also gave a viability, T/C [31] of 72%, a viability, T/C [32] of 58.6% and a viability, T/C [33] of 47.8%. For the same compound, the viability, T/C [34] was 45.5%, the viability, T/C [35] was 33.6% and the viability, T/C [36] was 26.1%.

`Cn1ncnc1[C@H]1c2n[nH]c(=O)c3cc(F)cc(c23)N[C@@H]1c1ccc(F)cc1` + CC(Nc1ncnc2nc[nH]c12)c1cc2cccc(Cl)c2c(=O)n1-c1ccccc1 gave a pIC50 (second compound 0.0316 µM) of less than 7.00, a pIC50 (second compound 0.1 µM) of less than 7.00 and a pIC50 (second compound 0.316 µM) of less than 7.00. For the same compound, the pIC50 (second compound 1 µM) was less than 7.00, the pIC50 (second compound 3.16 µM) was less than 7.00 and the pIC50 (second compound 10 µM) was greater than 9.50. For the same compound, the viability, T/C (second compound 0.0316 µM, first compound 0.000316 µM) was 106%, the viability, T/C (second compound 0.0316 µM, first compound 0.001 µM) was 108% and the viability, T/C (second compound 0.0316 µM, first compound 0.00316 µM) was 97.6%. It also gave a viability, T/C (second compound 0.0316 µM, first compound 0.01 µM) of 92.5%, a viability, T/C [1] of 98.9% and a viability, T/C [2] of 77.1%. For the same compound, the viability, T/C (second compound 0.1 µM, first compound 0.000316 µM) was 99.7%, the viability, T/C (second compound 0.1 µM, first compound 0.001 µM) was 99.7% and the viability, T/C (second compound 0.1 µM, first compound 0.00316 µM) was 103%. The viability, T/C (second compound 0.1 µM, first compound 0.01 µM) was 94%, the viability, T/C [7] was 92% and the viability, T/C [8] was 79.2%. The viability, T/C (second compound 0.316 µM, first compound 0.000316 µM) was 94.7%, the viability, T/C (second compound 0.316 µM, first compound 0.001 µM) was 103% and the viability, T/C (second compound 0.316 µM, first compound 0.00316 µM) was 86.8%. For the same compound, the viability, T/C (second compound 0.316 µM, first compound 0.01 µM) was 93.3%, the viability, T/C [13] was 86.9% and the viability, T/C [14] was 76.1%. It also gave a viability, T/C (second compound 1 µM, first compound 0.000316 µM) of 87.2%, a viability, T/C (second compound 1 µM, first compound 0.001 µM) of 81.9% and a viability, T/C (second compound 1 µM, first compound 0.00316 µM) of 80.8%. The viability, T/C (second compound 1 µM, first compound 0.01 µM) was 78%, the viability, T/C [19] was 73.4% and the viability, T/C [20] was 65%. The viability, T/C (second compound 3.16 µM, first compound 0.000316 µM) was 63.7%, the viability, T/C (second compound 3.16 µM, first compound 0.001 µM) was 60.9% and the viability, T/C (second compound 3.16 µM, first compound 0.00316 µM) was 54.1%. The viability, T/C (second compound 3.16 µM, first compound 0.01 µM) was 60.6%, the viability, T/C [25] was 49.8% and the viability, T/C [26] was 52.3%. It also gave a viability, T/C (second compound 10 µM, first compound 0.000316 µM) of 48.9%, a viability, T/C (second compound 10 µM, first compound 0.001 µM) of 47.6% and a viability, T/C (second compound 10 µM, first compound 0.00316 µM) of 46.8%. For the same compound, the viability, T/C (second compound 10 µM, first compound 0.01 µM) was 46.4%, the viability, T/C [31] was 46% and the viability, T/C [32] was 38.8%.
